The values below come from PubChem BioAssay (NCI).

Among the test systems are MDA-MB-231 breast; HOP-92 NSCLC; UO-31 renal; RXF 393 renal; 786-0 renal; OVCAR-5 ovarian; K-562 leukemia; ACHN renal; MDA-N; HOP-62 NSCLC; NCI/ADR-RES ovarian.
Common to all, as to test: DTP human tumour cell line panel, 48 h

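48-hour exposure; five concentrations; linearly interpolated endpoints. TGI is the concentration that stops growth completely.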

The TGI is the concentration at which net growth stops. High values mean less potent growth arrest, low ones more potent growth arrest. In the case of `CCN1CC2(C)CCC(OC)C34C5CC6CCC(O)(C5C(=O)O6)C(C(O)C23)C14` (configuration not stated), the TGI with MDA-MB-231 breast, in the assay on HOP-92 NSCLC, in the assay on UO-31 renal, in the assay on RXF 393 renal, in the assay on 786-0 renal and in the assay on OVCAR-5 ovarian was more than 100 µM in each case. Further, the TGI in the assay on K-562 leukemia, in the assay on ACHN renal, in the assay with MDA-N, in the assay on HOP-62 NSCLC and in the assay on NCI/ADR-RES ovarian was more than 100 µM each time.

`C[n+]1cccc2ccc3cccnc3c21`: the TGI in the assay on MDA-MB-231 breast, with HOP-92 NSCLC, in the assay with UO-31 renal, with RXF 393 renal, with 786-0 renal and with OVCAR-5 ovarian was more than 100 µM in each case. Further, the TGI with K-562 leukemia was more than 100 µM; in the assay on ACHN renal it was more than 100 µM; in the assay with MDA-N, more than 100 µM; in the assay with HOP-62 NSCLC, 75 µM; with NCI/ADR-RES ovarian it was more than 100 µM.

For the molecule `COc1cc2c(cc1O)C1Cc3ccc(OC)c(O)c3C[N+]1(C)CC2` (configuration not stated), the TGI in the assay with MDA-MB-231 breast, with HOP-92 NSCLC, in the assay on UO-31 renal, in the assay on RXF 393 renal, in the assay on 786-0 renal and with OVCAR-5 ovarian was more than 100 µM throughout. The TGI in the assay with K-562 leukemia, in the assay on ACHN renal, in the assay on MDA-N, in the assay on HOP-62 NSCLC and in the assay on NCI/ADR-RES ovarian was more than 100 µM in each case.

Take `Cc1cn(CCCCCCOC(=O)NC(CCCNC(N)=O)C(=O)O)c(=O)[nH]c1=O` (configuration not stated): the TGI in the assay on MDA-MB-231 breast, with HOP-92 NSCLC, in the assay on UO-31 renal, in the assay with RXF 393 renal, in the assay on 786-0 renal and in the assay with OVCAR-5 ovarian was more than 100 µM throughout. Also, the TGI in the assay with K-562 leukemia, with ACHN renal, in the assay with MDA-N, in the assay with HOP-62 NSCLC and in the assay on NCI/ADR-RES ovarian was more than 100 µM throughout.

With `CN1CCN(C(=O)c2cn(Cc3cncn3Cc3ccc4c(c3)OCO4)cc2-c2cccc3ccccc23)CC1`, the TGI was 33.3 µM in the assay with MDA-MB-231 breast; 57.8 µM in the assay with HOP-92 NSCLC; more than 100 µM in the assay on UO-31 renal; more than 100 µM in the assay with RXF 393 renal; more than 86 µM with 786-0 renal; more than 100 µM with OVCAR-5 ovarian. The TGI with K-562 leukemia is 53.5 µM; in the assay on ACHN renal it was more than 100 µM; in the assay on MDA-N, more than 100 µM; with HOP-62 NSCLC it was more than 100 µM; with NCI/ADR-RES ovarian it was more than 100 µM.

With `COc1ccc(CCNC(=O)Cc2ccccc2CO)cc1OC`, the TGI in the assay with MDA-MB-231 breast, in the assay with HOP-92 NSCLC, in the assay on UO-31 renal, in the assay with RXF 393 renal, in the assay with 786-0 renal and with OVCAR-5 ovarian was more than 100 µM throughout. In addition, the TGI with K-562 leukemia, in the assay on ACHN renal, with MDA-N, with HOP-62 NSCLC and in the assay on NCI/ADR-RES ovarian was more than 100 µM in each case.

For the molecule `CSC(SC)=C(C(=O)c1ccc(Cl)cc1)n1c(=O)sc2cc(Br)ccc21`, the TGI in the assay on MDA-MB-231 breast, in the assay on HOP-92 NSCLC, in the assay on UO-31 renal, in the assay on RXF 393 renal, in the assay with 786-0 renal and in the assay with OVCAR-5 ovarian was more than 100 µM each time. Further, the TGI in the assay with K-562 leukemia, in the assay on ACHN renal, in the assay on MDA-N, in the assay on HOP-62 NSCLC and with NCI/ADR-RES ovarian was more than 100 µM throughout.

Consider `O=C(O)CSC(CC(=O)c1ccc(Cl)cc1)c1ccc(Cl)cc1` (configuration not stated), for which the TGI is more than 100 µM in the assay with MDA-MB-231 breast; 73.2 µM in the assay with HOP-92 NSCLC; more than 100 µM in the assay on UO-31 renal; more than 100 µM in the assay with 786-0 renal; more than 100 µM with OVCAR-5 ovarian; more than 100 µM in the assay with K-562 leukemia. For the same molecule, the TGI in the assay with ACHN renal is more than 100 µM; in the assay with MDA-N, more than 100 µM; in the assay with HOP-62 NSCLC, 97.1 µM; in the assay with NCI/ADR-RES ovarian it was more than 100 µM.

For `CC(C)(C)C1CCC2c3c([nH]c4ccccc34)C3C(=O)N(c4ccc([N+](=O)[O-])cc4)C(=O)C3C2C1` (configuration not stated), the TGI in the assay on MDA-MB-231 breast is 48.4 µM; in the assay with HOP-92 NSCLC it was 17.5 µM; in the assay with RXF 393 renal, 23.6 µM; with 786-0 renal, 18.9 µM; in the assay on OVCAR-5 ovarian, more than 100 µM; in the assay with K-562 leukemia it was 55.3 µM. Also, the TGI with ACHN renal was more than 100 µM; with MDA-N, more than 100 µM; in the assay with HOP-62 NSCLC, 33.8 µM; with NCI/ADR-RES ovarian it was 41 µM.

Take `Cc1c(C)c2c(c(N)c1C#N)C(=O)N(N)C2=O`: the TGI in the assay on MDA-MB-231 breast, with HOP-92 NSCLC, with UO-31 renal, with RXF 393 renal, in the assay on 786-0 renal and in the assay on OVCAR-5 ovarian was more than 100 µM in each case. Besides, the TGI in the assay with K-562 leukemia, in the assay with ACHN renal, in the assay with MDA-N and with NCI/ADR-RES ovarian was more than 100 µM each time.

`COc1ccc(N2C(=O)C3c4[nH]c5c(C)cccc5c4C4CCC(C(C)C)CC4C3C2=O)cc1` (configuration not stated): the TGI was 34.8 µM in the assay on MDA-MB-231 breast; 34.4 µM in the assay on HOP-92 NSCLC; 31.4 µM in the assay with UO-31 renal; 19.5 µM in the assay on 786-0 renal; 29.7 µM in the assay on OVCAR-5 ovarian; 5.86 µM in the assay with K-562 leukemia. In addition, the TGI in the assay with ACHN renal was determined as 47.2 µM; in the assay on MDA-N, 29.2 µM; in the assay with HOP-62 NSCLC, 22.7 µM; with NCI/ADR-RES ovarian it was 51.1 µM.

Consider `N#CCCC(C=O)(CCC#N)CCC#N`, for which the TGI in the assay on MDA-MB-231 breast, in the assay on HOP-92 NSCLC, with UO-31 renal, in the assay on RXF 393 renal, in the assay on 786-0 renal and in the assay with OVCAR-5 ovarian was more than 100 µM in each case. In addition, the TGI in the assay on K-562 leukemia, in the assay on ACHN renal, with MDA-N and in the assay with NCI/ADR-RES ovarian was more than 100 µM in each case.

For `O=C(O)c1c(CC(Cc2ccc3c(c2)CCC3)C(=O)O)ccc2c1CCC2` (configuration not stated), the TGI in the assay on MDA-MB-231 breast, with HOP-92 NSCLC, in the assay on UO-31 renal, in the assay on 786-0 renal, with OVCAR-5 ovarian and with K-562 leukemia was more than 100 µM throughout. Further, the TGI in the assay with ACHN renal, in the assay on MDA-N, in the assay on HOP-62 NSCLC and with NCI/ADR-RES ovarian was more than 100 µM in each case.
